Experimental data from US12421211B2, “Heterocyclic compounds” (Hoffmann-La Roche Inc., priority 2021, dated 2025).
Where a name gives a salt, the structure may show the parent alone. Read-outs that look alike come from different tables or passages of the source.

Tested on: Acinetobacter baumannii ATCC17961
Assay: Antimicrobial susceptibility testing: 90% growth inhibitory concentration (IC90) determination
Type: cell-based
Settings: read-out: ATCC 17961 IC90
Method: Assay Procedures Antimicrobial Susceptibility Testing: 90% Growth Inhibitory Concentration (IC90) Determination
The in vitro antimicrobial activity of the compounds was determined according to the following procedure:
The assay used a 10-points Iso-Sensitest broth medium to measure quantitatively the in vitro activity of the compounds against Acinetobacter baumannii ATCC17961.
Stock compounds in DMSO were serially twofold diluted (e.g. range from 50 to 0.097 μM final concentration) in 384 wells microtiter plates and inoculated with 49 μl the bacterial suspension in Iso-Sensitest medium to have a final cell concentration of ˜5×10^(5) CFU/ml in a final volume/well of 50 ul/well. Microtiter plates were incubated at 35±2° C.
Bacterial cell growth was determined with the measurement of optical density at λ=600 nm each 20 minutes over a time course of 16h. Growth inhibition was calculated during the logarithmic growth of the bacterial cells with determination of the concentration inhibiting 50% (IC50) and 90% (IC90) of the growth.
Table 1 provides the 90% growth inhibitory concentrations (IC90) in micromoles per liter of the compounds of present invention obtained against the strain Acinetobacter baumannii ATCC17961.

[1] = Acinetobacter baumannii, ATCC17961, 16 h, 90% growth inhibitory concentration, Acinetobacter baumannii ATCC17961, Iso-Sensitest broth, OD 600 nm over 16 h
[2] = Acinetobacter baumannii, ATCC17961, 16 h

| IC90 [1] [nM] | Structure (SMILES) | IC90 [2] [nM] | other results |
| --- | --- | --- | --- |
| 150 | COCCn1nc(C)c(-c2ccc(-c3cnc(C(=O)Nc4ccc(C(=O)NC5[C@H]6CN(C(=O)N[C@@H]7C[N+](C)(C)C[C@H]7O)C[C@@H]56)c(Cl)c4)n3C)c(F)c2F)c1C (mixture of isomers) [Example F60, rac-(1S,5R)-6-[[2-chloro-4-[[5-[2,3-difluoro-4-[1-(2-methoxyethyl)-3,5-dimethyl-pyrazol-4-yl]phenyl]-1-methyl-imidazole-2-carbonyl]amino]benzoyl]amino]-N-[(3R,4R)-4-hydroxy-1,1-dimethyl-pyrrolidin-1-ium-3-yl]-3-azabicyclo[3.1.0]hexane-3-carboxamide; formate] | – | – |
| 390 | COCCn1nc(C)c(-c2ccc(-c3cnc(C(=O)Nc4ccc(C(=O)N5CCN(C(=O)[C@@H]6C[C@@H](O)C[N+]6(C)C)CC5)c(Cl)c4)n3C)c(F)c2F)c1C (racemic) [Example D3, N-[3-chloro-4-[4-[(2S,4R)-4-hydroxy-1,1-dimethyl-pyrrolidin-1-ium-2-carbonyl]piperazine-1-carbonyl]phenyl]-5-[2,3-difluoro-4-[1-(2-methoxyethyl)-3,5-dimethyl-pyrazol-4-yl]phenyl]-1-methyl-imidazole-2-carboxamide; formate] | – | – |
| – | COCCn1cc(-c2ccc(-c3cnc(C(=O)Nc4ccc(C(=O)N5CCN(C(=O)C6CC[N+](C)(C)CC6)CC5)c(Cl)c4)n3C)c(F)c2F)c(C)n1 [Example A1, N-[3-chloro-4-[4-(1,1-dimethylpiperidin-1-ium-4-carbonyl)piperazine-1-carbonyl]phenyl]-5-[2,3-difluoro-4-[l-(2-methoxyethyl)-3-methyl-pyrazol-4-yl]phenyl]-1-methyl-imidazole-2-carboxamide; formate] | 120 | – |
| 230 | COCCn1nc(C)c(-c2ccc(-c3cnc(C(=O)Nc4ccc(C(=O)N5CCN(C(=O)C6CC[N+](C)(C)CC6)CC5)c(Cl)c4)n3C)c(F)c2F)c1C [Example A2, N-[3-chloro-4-[4-(1,1-dimethylpiperidin-1-ium-4-carbonyl)piperazine-1-carbonyl]phenyl]-5-[2,3-difluoro-4-[1-(2-methoxyethyl)-3,5-dimethyl-pyrazol-4-yl]phenyl]-1-methyl-imidazole-2-carboxamide; formate] | – | – |
| 230 | COCCn1nc(C)c(-c2ccc(-c3cnc(C(=O)Nc4ccc(C(=O)N5CCN(C(=O)C6CC[N+](C)(C)CC6)CC5)c(Cl)c4)n3C)cc2)c1C [Example A3, N-[3-chloro-4-[4-(1,1-dimethylpiperidin-1-ium-4-carbonyl)piperazine-1-carbonyl]phenyl]-5-[4-[1-(2-methoxyethyl)-3,5-dimethyl-pyrazol-4-yl]phenyl]-1-methyl-imidazole-2-carboxamide; formate] | – | – |
| 110 | COCCn1ncc(-c2ccc(-c3cnc(C(=O)Nc4ccc(C(=O)N5CCN(C(=O)C6CC[N+](C)(C)CC6)CC5)c(Cl)c4)n3C)c(F)c2F)c1C [Example A4, N-[3-chloro-4-[4-(1,1-dimethylpiperidin-1-ium-4-carbonyl)piperazine-1-carbonyl]phenyl]-5-[2,3-difluoro-4-[1-(2-methoxyethyl)-5-methyl-pyrazol-4-yl]phenyl]-1-methyl-imidazole-2-carboxamide; formate] | – | – |
| 55 | COCCn1ncc(-c2ccc(-c3cnc(C(=O)Nc4ccc(C(=O)N5CCN(C(=O)C[C@@H]6CC[N+](C)(C)C6)CC5)c(Cl)c4)n3C)c(F)c2F)c1C [Example A5, N-[3-chloro-4-[4-[2-[(3S)-1,1-dimethylpyrrolidin-1-ium-3-yl]acetyl]piperazine-1-carbonyl]phenyl]-5-[2,3-difluoro-4-[1-(2-methoxyethyl)-5-methyl-pyrazol-4-yl]phenyl]-1-methyl-imidazole-2-carboxamide; formate] | – | – |
| – | COCCn1ncc(-c2ccc(-c3cnc(C(=O)Nc4ccc(C(=O)N5CCN(C(=O)C[N+](C)(C)C)CC5)c(Cl)c4)n3C)c(F)c2F)c1C [Example A8, [2-[4-[2-chloro-4-[[5-[2,3-difluoro-4-[1-(2-methoxyethyl)-5-methyl-pyrazol-4-yl]phenyl]-1-methyl-imidazole-2-carbonyl]amino]benzoyl]piperazin-1-yl]-2-oxo-ethyl]-trimethyl-ammonium; 2,2,2-trifluoroacetate] | 53 | – |
| – | COCCn1ncc(-c2ccc(-c3cnc(C(=O)Nc4ccc(C(=O)NCC5CCN(C(=O)C[N+](C)(C)C)CC5)c(Cl)c4)n3C)c(F)c2F)c1C [Example A9, [2-[4-[[[2-chloro-4-[[5-[2,3-difluoro-4-[1-(2-methoxyethyl)-5-methyl-pyrazol-4-yl]phenyl]-1-methyl-imidazole-2-carbonyl]amino]benzoyl]amino]methyl]-1-piperidyl]-2-oxo-ethyl]-trimethyl-ammonium; 2,2,2-trifluoroacetate] | 160 | – |
| 98 | COCCn1ncc(-c2ccc(-c3cnc(C(=O)Nc4ccc(C(=O)N5CCC(C(=O)N6CC[N+](C)(C)CC6)CC5)c(Cl)c4)n3C)c(F)c2F)c1C [Example A10, N-[3-chloro-4-[4-(4,4-dimethylpiperazin-4-ium-1-carbonyl)piperidine-1-carbonyl]phenyl]-5-[2,3-difluoro-4-[1-(2-methoxyethyl)-5-methyl-pyrazol-4-yl]phenyl]-1-methyl-imidazole-2-carboxamide; formate] | – | – |
| 210 | COCCn1cc(-c2ccc(-c3cnc(C(=O)Nc4ccc(C(=O)N5CCN(C(=O)[C@@H]6CC(CO)C[N+]6(C)C)CC5)c(Cl)c4)n3C)c(F)c2F)c(C)n1 (stereo partly drawn) [Example A12, N-[3-chloro-4-[4-[(2S)-4-(hydroxymethyl)-1,1-dimethyl-pyrrolidin-1-ium-2-carbonyl]piperazine-1-carbonyl]phenyl]-5-[2,3-difluoro-4-[1-(2-methoxyethyl)-3-methyl-pyrazol-4-yl]phenyl]-1-methyl-imidazole-2-carboxamide; formate] | – | – |
| 110 | COCCn1ncc(-c2ccc(-c3cnc(C(=O)Nc4ccc(C(=O)N5CCN(C(=O)C6(OC)CC[N+](C)(C)CC6)CC5)c(Cl)c4)n3C)c(F)c2F)c1C [Example A13, N-[3-chloro-4-[4-(4-methoxy-1,1-dimethyl-piperidin-1-ium-4-carbonyl)piperazine-1-carbonyl]phenyl]-5-[2,3-difluoro-4-[1-(2-methoxyethyl)-5-methyl-pyrazol-4-yl]phenyl]-1-methyl-imidazole-2-carboxamide; formate] | – | – |
| – | COCCn1cc(-c2ccc(-c3cnc(C(=O)Nc4ccc(C(=O)N5CCN(C(=O)C6CC[N+](C)(CC(N)=O)CC6)CC5)c(Cl)c4)n3C)c(F)c2F)c(C)n1 (centres unmarked) [Example B1, N-[4-[4-[1-(2-amino-2-oxo-ethyl)-1-methyl-piperidin-1-ium-4-carbonyl]piperazine-1-carbonyl]-3-chloro-phenyl]-5-[2,3-difluoro-4-[1-(2-methoxyethyl)-3-methyl-pyrazol-4-yl]phenyl]-1-methyl-imidazole-2-carboxamide; formate] | 190 | – |
| – | COCCn1cc(-c2ccc(-c3cnc(C(=O)Nc4ccc(C(=O)N5CCN(C(=O)C6CC[N+](C)(CC(N)=O)CC6)CC5)c(Cl)c4)n3C)c(F)c2F)c(C)n1 (centres unmarked) [Example B3, N-[4-[4-[1-(2-amino-2-oxo-ethyl)-1-methyl-piperidin-1-ium-4-carbonyl]piperazine-1-carbonyl]-3-chloro-phenyl]-5-[2,3-difluoro-4-[1-(2-methoxyethyl)-3-methyl-pyrazol-4-yl]phenyl]-1-methyl-imidazole-2-carboxamide; formate] | – | IC90 (90% growth inhibitory concentration, Acinetobacter baumannii ATCC17961, Iso-Sensitest broth, OD 600 nm over 16 h, formate): 130 nM |
| – | Cc1nn(CC(F)F)cc1-c1ccc(-c2cnc(C(=O)Nc3ccc(C(=O)N4CCN(C(=O)C5CC[N+](C)(CC(N)=O)CC5)CC4)c(Cl)c3)n2C)c(F)c1F (centres unmarked) [Example B7, N-[4-[4-[1-(2-amino-2-oxo-ethyl)-1-methyl-piperidin-1-ium-4-carbonyl]piperazine-1-carbonyl]-3-chloro-phenyl]-5-[4-[1-(2,2-difluoroethyl)-3-methyl-pyrazol-4-yl]-2,3-difluoro-phenyl]-1-methyl-imidazole-2-carboxamide; formate] | 170 | – |
| – | COCCn1nc(C)c(-c2ccc(-c3cnc(C(=O)Nc4ccc(C(=O)N5CCN(C(=O)C6CC[N+](C)(CCO)CC6)CC5)c(Cl)c4)n3C)c(F)c2F)c1C (centres unmarked) [Example B8, N-[3-chloro-4-[4-[1-(2-hydroxyethyl)-1-methyl-piperidin-1-ium-4-carbonyl]piperazine-1-carbonyl]phenyl]-5-[2,3-difluoro-4-[1-(2-methoxyethyl)-3,5-dimethyl-pyrazol-4-yl]phenyl]-1-methyl-imidazole-2-carboxamide; formate] | 280 | – |

| Structure (SMILES) | IC90 [1] [nM] | IC90 [2] [nM] | other results |
| --- | --- | --- | --- |
| COCCn1cc(-c2ccc(-c3cnc(C(=O)Nc4ccc(C(=O)N5CCN(C(=O)C6CC[N+](C)(CC(N)=O)CC6)CC5)c(Cl)c4)n3C)c(F)c2F)c(C)n1 (centres unmarked) [Example B2, N-[4-[4-[1-(2-amino-2-oxo-ethyl)-1-methyl-piperidin-1-ium-4-carbonyl]piperazine-1-carbonyl]-3-chloro-phenyl]-5-[2,3-difluoro-4-[1-(2-methoxyethyl)-3-methyl-pyrazol-4-yl]phenyl]-1-methyl-imidazole-2-carboxamide; formate] | 120 | – | – |
